Measured values: ChEMBL document CHEMBL1201862, “PubChem BioAssay data set” (2004)
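96-well plates; 48 h exposure; 5 concentrations. Endpoints by linear interpolation between flanking doses. Not reached: highest tested concentration assigned. GI50: concentration for 50% inhibition of growth.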 Activity calls are given as the source filed them. Rule as the data show it: active = GI50 up to about 1.1 µM and inactive = higher.

How the values were obtained:
Test in all cases: NCI anticancer screen, dose series, 48 h
NCI/ADR-RES = tested on: NCI/ADR-RES
HOP-62 = tested on: HOP-62
SK-OV-3 = tested on: SK-OV-3
K562 = tested on: K562
DU-145 = tested on: DU-145
UACC-62 = tested on: UACC-62
RPMI-8226 = tested on: RPMI-8226
TK-10 = tested on: TK-10
SF-539 = tested on: SF-539
NCI-H522 = tested on: NCI-H522
CAKI-1 = tested on: CAKI-1
UO-31 = tested on: UO-31
ACHN = tested on: ACHN
HCT-15 = tested on: HCT-15
SN12C = tested on: SN12C
M14 = tested on: M14
PC-3 = tested on: PC-3
SNB-75 = tested on: SNB-75
NCI-H23 = tested on: NCI-H23
MDA-N = tested on: MDA-N

Compound	GI50 (NCI/ADR-RES)	GI50 (HOP-62)	GI50 (SK-OV-3)	GI50 (K562)	GI50 (DU-145)	GI50 (UACC-62)	GI50 (RPMI-8226)	GI50 (TK-10)	GI50 (SF-539)	GI50 (NCI-H522)	GI50 (CAKI-1)	GI50 (UO-31)	GI50 (ACHN)	GI50 (HCT-15)	GI50 (SN12C)	GI50 (M14)	GI50 (PC-3)	GI50 (SNB-75)	GI50 (NCI-H23)	GI50 (MDA-N)
CO[C@@]12C[C@H](CNC(=O)c3ccc[nH]3)O[C@@H]1NC(=O)N2	> 100 µM (inactive)	> 100 µM (inactive)	> 100 µM (inactive)	> 100 µM (inactive)	> 100 µM (inactive)	> 100 µM (inactive)	> 100 µM (inactive)	> 100 µM (inactive)	> 100 µM (inactive)	> 100 µM (inactive)	> 100 µM (inactive)	> 100 µM (inactive)	> 100 µM (inactive)	> 100 µM	> 100 µM (inactive)	> 100 µM (inactive)	> 100 µM (inactive)	> 100 µM (inactive)	> 100 µM (inactive)	
Clc1ccc(/C=c2\nc(-c3ccccc3)n3c2nc2ccccc23)cc1	28.2 µM (inactive)	38.4 µM (inactive)	43.3 µM (inactive)	> 100 µM (inactive)	> 100 µM (inactive)	> 100 µM (inactive)	> 100 µM (inactive)	> 100 µM (inactive)	22.4 µM (inactive)		51.4 µM (inactive)	> 100 µM (inactive)	21.9 µM (inactive)	> 100 µM	> 100 µM (inactive)	> 100 µM (inactive)	19.1 µM (inactive)		> 100 µM (inactive)	
O=[As](O)(O)c1cc(/N=N/c2ccc(-c3ccc(/N=N/c4cc([As](=O)(O)O)c(O)cc4O)cc3)cc2)c(O)cc1O		> 100 µM (inactive)	> 100 µM (inactive)	> 55.5 µM (inactive)		> 100 µM (inactive)	> 100 µM (inactive)	> 100 µM (inactive)	> 74.1 µM (inactive)	> 100 µM (inactive)	> 79.6 µM (inactive)	> 100 µM (inactive)	> 100 µM (inactive)	97.1 µM	> 100 µM (inactive)	> 53 µM (inactive)		> 100 µM (inactive)	> 100 µM (inactive)	
CS/C(=N\Nc1cnc2ccccc2n1)NS(=O)(=O)c1cc(C)c(Cl)cc1Cl	84.7 µM (inactive)	> 100 µM (inactive)	> 100 µM (inactive)	> 100 µM (inactive)	> 100 µM (inactive)	50.7 µM (inactive)		82 µM (inactive)	> 100 µM (inactive)	> 100 µM (inactive)	53.5 µM (inactive)	33.9 µM (inactive)	> 100 µM (inactive)	> 100 µM	> 100 µM (inactive)	> 100 µM (inactive)	> 100 µM (inactive)	43.2 µM (inactive)	> 100 µM (inactive)	
Nc1nc(N)c(-c2ccccc2)c(CCC(=O)Nc2ccc(Cl)cc2)n1		> 100 µM (inactive)	> 100 µM (inactive)	76.2 µM (inactive)		> 100 µM (inactive)	> 100 µM (inactive)	> 100 µM (inactive)	> 100 µM (inactive)	> 100 µM (inactive)	> 100 µM (inactive)	> 100 µM (inactive)	> 100 µM (inactive)	> 100 µM	> 100 µM (inactive)	> 100 µM (inactive)		> 100 µM (inactive)	> 100 µM (inactive)	
Cc1cc2c(cc1Cl)SC(c1ccccc1O)NS2(=O)=O (stereo not given)	30.7 µM (inactive)	> 100 µM (inactive)	> 100 µM (inactive)	27.7 µM (inactive)	33.9 µM (inactive)	29.6 µM (inactive)		> 100 µM (inactive)	48.8 µM (inactive)	48.9 µM (inactive)	50.6 µM (inactive)	63.2 µM (inactive)	52.8 µM (inactive)	19.4 µM	41 µM (inactive)	57 µM (inactive)	68.5 µM (inactive)	> 100 µM (inactive)	70.6 µM (inactive)	
Cn1cc(NC(=O)c2cc(NC(=O)CCCCCCCCC(=O)Nc3cc(C(=O)Nc4cc(C(=O)NCCC(N)N)n(C)c4)n(C)c3)cn2C)cc1C(=O)NCCC(=N)N		33 µM (inactive)	27.9 µM (inactive)	13.4 µM (inactive)		20.7 µM (inactive)	5.35 µM (inactive)	18.2 µM (inactive)	22.6 µM (inactive)	8.99 µM (inactive)	22.5 µM (inactive)	28.2 µM (inactive)	17.9 µM (inactive)	35.4 µM	23.8 µM (inactive)	22.3 µM (inactive)		18.1 µM (inactive)	33.9 µM (inactive)	
Cc1cccc(NC(=O)C(=O)C(C(=O)c2ccc3ccccc3c2)C2OC(=O)c3ccccc32)c1C (stereo not given)		10.7 µM (inactive)	12.7 µM (inactive)	15.7 µM (inactive)		10.4 µM (inactive)	6.98 µM (inactive)	23.3 µM (inactive)	6.53 µM (inactive)	14.1 µM (inactive)	11.9 µM (inactive)	14.5 µM (inactive)	28.1 µM (inactive)	15.5 µM	15.9 µM (inactive)	14.4 µM (inactive)		8.49 µM (inactive)	8.99 µM (inactive)	
COc1cc2ccc3c4cc(OC)c(OC(C)C)cc4cnc3c2cc1OC		> 100 µM (inactive)	> 100 µM (inactive)	> 100 µM (inactive)		> 100 µM (inactive)	> 100 µM (inactive)	> 100 µM (inactive)	> 100 µM (inactive)	> 100 µM (inactive)	> 100 µM (inactive)	> 100 µM (inactive)	> 100 µM (inactive)	> 100 µM	> 100 µM (inactive)	> 100 µM (inactive)		> 100 µM (inactive)	> 100 µM (inactive)	
CO/C(=N\N=C\c1ccc(OC)cc1OC)c1ccncc1	> 10 µM (inactive)	> 10 µM (inactive)	> 10 µM (inactive)	> 10 µM (inactive)			> 10 µM (inactive)	> 10 µM (inactive)	> 10 µM (inactive)			> 10 µM (inactive)	> 10 µM (inactive)	> 10 µM	> 10 µM (inactive)		> 10 µM (inactive)	> 10 µM (inactive)	> 10 µM (inactive)	
c1cn[nH]c1 [PYRAZOLE]	> 10 µM (inactive)	> 10 µM (inactive)	> 10 µM (inactive)	> 10 µM (inactive)		> 10 µM (inactive)	> 10 µM (inactive)	> 10 µM (inactive)	> 10 µM (inactive)			> 10 µM (inactive)	> 10 µM (inactive)	> 10 µM	> 10 µM (inactive)		> 10 µM (inactive)	> 10 µM (inactive)	> 10 µM (inactive)	> 10 µM (inactive)
Cn1cc(NC(=O)c2cc(NC(=O)c3cc(NC=O)cn3C)cn2C)cc1C(=O)NCCC(=N)N [STALLIMYCIN]	> 100 µM (inactive)	> 100 µM (inactive)	> 100 µM (inactive)	> 100 µM (inactive)	> 100 µM (inactive)	61.4 µM (inactive)	> 100 µM (inactive)	> 100 µM (inactive)	> 100 µM (inactive)		> 100 µM (inactive)	> 100 µM (inactive)	> 100 µM (inactive)	> 100 µM	> 100 µM (inactive)	> 100 µM (inactive)	> 100 µM (inactive)	22.8 µM (inactive)	> 100 µM (inactive)	
